Holding throughout (assay type): cell-based
Assay [1] concerns the target T1, Mrgpra1 (Mus musculus, UniProt Q91WW5).
T1 sequence (Q91WW5 1-304): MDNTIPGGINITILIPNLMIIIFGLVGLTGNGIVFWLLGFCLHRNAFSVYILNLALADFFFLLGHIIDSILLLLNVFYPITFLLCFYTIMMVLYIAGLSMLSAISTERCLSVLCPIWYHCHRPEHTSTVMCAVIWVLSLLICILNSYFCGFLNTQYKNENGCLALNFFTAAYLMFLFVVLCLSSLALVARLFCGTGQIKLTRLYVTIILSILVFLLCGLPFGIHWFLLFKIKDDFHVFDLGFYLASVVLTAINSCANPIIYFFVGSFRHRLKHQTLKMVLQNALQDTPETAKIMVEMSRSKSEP
Briefly: calcium imaging.

The target of assay [2] is T2, Mrgprb2 (Mus musculus, UniProt Q3KNA1).
T2 sequence (Q3KNA1 1-338): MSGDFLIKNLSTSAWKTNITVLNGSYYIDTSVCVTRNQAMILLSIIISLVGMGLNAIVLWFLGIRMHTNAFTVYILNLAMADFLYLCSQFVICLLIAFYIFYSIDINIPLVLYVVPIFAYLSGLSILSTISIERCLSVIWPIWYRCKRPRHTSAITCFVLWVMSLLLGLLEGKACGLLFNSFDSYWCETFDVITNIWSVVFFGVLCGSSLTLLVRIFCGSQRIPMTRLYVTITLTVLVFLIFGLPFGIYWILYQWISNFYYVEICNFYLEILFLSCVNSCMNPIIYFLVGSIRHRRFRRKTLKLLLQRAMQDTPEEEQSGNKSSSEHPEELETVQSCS
In words: calcium imaging.

Assay [3] concerns the target T1, Mrgpra1. Briefly: calcium imaging, […] DCA in Mrgpra1-HEK293T cells.

The term EC50 denotes the concentration that produces a half-maximal response. As to `C[C@H](CCC(=O)O)[C@H]1CC[C@H]2[C@@H]3CC[C@@H]4C[C@H](O)CC[C@]4(C)[C@H]3CC[C@]12C` [LCA, 3α-hydroxy-5β-cholan-24-oic acid], the EC50 is 290 µM in assay [1] and 183 µM in assay [2].
For the molecule `C[C@H](CCC(=O)O)[C@H]1CC[C@H]2[C@@H]3CC[C@@H]4C[C@H](O)CC[C@]4(C)[C@H]3C[C@H](O)[C@]12C` [DCA, deoxycholic acid], the “calcium imaging, 100 μM DCA in Mrgpra1-HEK293T cells (weaker than LCA)” value in assay [3] is on record as “also elevated the fluorescence intensity in Mrgpra1-HEK293T, but to a lesser extent (Fig. 1B, 1C)”.
